From EP1023075B1, “LIQUID PRESENTATIONS OF OXAZAPHOSPHORINE-CONTAINING PHARMACEUTICAL PRODUCTS” (STADA ARZNEIMITTEL AG, priority 1997, dated 1999)
In brackets after ≈: the same amount, converted by molar mass. Where two headings read alike, the source gives them in different places.

Assays:
[1] = Solubility trials: saturation concentration of the oxazaphosphorine in water / aqueous urea solution; conditions: for pH-Wert: saturated Ifosfamid solution
[2] = cited from earlier work
[3] = water, Sättigungskonzentration in Wasser, in Wasser

O=P1(N(CCCl)CCCl)NCCCO1 (stereo not shown) [Cyclophosphamid]
solubility ([1]; aqueous urea solution, Cyclophosphamid-Endkonzentration, Harnstoff-Startkonzentration 10 % (G/V), Harnstoff-Endkonzentration 9,1 % (G/G)): 87 mg/mL (≈ 333 mM)
solubility ([1]; aqueous urea solution, Cyclophosphamid-Endkonzentration, Harnstoff-Startkonzentration 20 % (G/V), Harnstoff-Endkonzentration 17,0 % (G/G)): 112 mg/mL (≈ 429 mM)
solubility ([1]; aqueous urea solution, Cyclophosphamid-Endkonzentration, Harnstoff-Startkonzentration 30 % (G/V), Harnstoff-Endkonzentration 24,2 % (G/G)): 136 mg/mL (≈ 521 mM)
solubility ([1]; aqueous urea solution, Cyclophosphamid-Endkonzentration, Harnstoff-Startkonzentration 40 % (G/V), Harnstoff-Endkonzentration 30,3 % (G/G)): 172 mg/mL (≈ 659 mM)
solubility ([1]; aqueous urea solution, Cyclophosphamid-Endkonzentration, Harnstoff-Startkonzentration 45 % (G/V), Harnstoff-Endkonzentration 37,3 % (G/G)): 170 mg/mL (≈ 651 mM)
solubility ([1]; aqueous urea solution, Cyclophosphamid-Endkonzentration, Harnstoff-Startkonzentration 50 % (G/V), Harnstoff-Endkonzentration 45,2 % (G/G)): 152 mg/mL (≈ 582 mM)
solubility ([1]; aqueous urea solution, Cyclophosphamid-Sättigungskonzentration, with Harnstoff, up to Harnstoffstartkonzentration 50% (G/V)): ≤ 170 mg/mL
solubility ([1]; water, Cyclophosphamid-Endkonzentration, Harnstoff-Startkonzentration 0 % (G/V), Harnstoff-Endkonzentration 0 % (G/G)): 61 mg/mL (≈ 234 mM)
solubility [1, 3]: ~60 mg/mL (≈ 230 mM)
Wirkstoffverlust ([2]; 2%ige (G/V) wäßrige Cyclophosphamidlösungen, 2 bis 8°C, nach 17 Wochen, 171360 min): ≤ 10%
Wirkstoffverlust ([2]; 2%ige (G/V) wäßrige Cyclophosphamidlösungen, Raumtemperatur, nach 7 Tagen): ≤ 10%

O=P1(NCCCl)OCCCN1CCCl (stereo not shown) [Ifosfamid]
solubility ([1]; aqueous urea solution, Ifosfamid-Endkonzentration, Harnstoff-Startkonzentration 1,0 % (G/V), Harnstoff-Endkonzentration 0,8 % (G/G)): 128 mg/mL (≈ 490 mM)
solubility ([1]; aqueous urea solution, Ifosfamid-Endkonzentration, Harnstoff-Startkonzentration 2,0 % (G/V), Harnstoff-Endkonzentration 1,6 % (G/G)): 132 mg/mL (≈ 506 mM)
solubility ([1]; aqueous urea solution, Ifosfamid-Endkonzentration, Harnstoff-Startkonzentration 3,0 % (G/V), Harnstoff-Endkonzentration 2,4 % (G/G)): 139 mg/mL (≈ 532 mM)
solubility ([1]; aqueous urea solution, Ifosfamid-Endkonzentration, Harnstoff-Startkonzentration 4,0 % (G/V), Harnstoff-Endkonzentration 3,2 % (G/G)): 147 mg/mL (≈ 563 mM)
solubility ([1]; aqueous urea solution, Ifosfamid-Endkonzentration, Harnstoff-Startkonzentration 5,0 % (G/V), Harnstoff-Endkonzentration 3,8 % (G/G)): 153 mg/mL (≈ 586 mM)
solubility ([1]; aqueous urea solution, Ifosfamid-Endkonzentration, Harnstoff-Startkonzentration 6,0 % (G/V), Harnstoff-Endkonzentration 4,4 % (G/G)): 159 mg/mL (≈ 609 mM)
solubility ([1]; aqueous urea solution, Ifosfamid-Endkonzentration, Harnstoff-Startkonzentration 7,0 % (G/V), Harnstoff-Endkonzentration 4,6 % (G/G)): 169 mg/mL (≈ 647 mM)
solubility ([1]; aqueous urea solution, Ifosfamid-Endkonzentration, Harnstoff-Startkonzentration 8,0 % (G/V), Harnstoff-Endkonzentration 5,0 % (G/G)): 172 mg/mL (≈ 659 mM)
solubility ([1]; aqueous urea solution, Ifosfamid-Endkonzentration, Harnstoff-Startkonzentration 9,0 % (G/V), Harnstoff-Endkonzentration 5,1 % (G/G)): 173 mg/mL (≈ 663 mM)
solubility ([1]; aqueous urea solution, Ifosfamid-Endkonzentration, Harnstoff-Startkonzentration 10,0 % (G/V), Harnstoff-Endkonzentration 6,6 % (G/G)): 370 mg/mL (≈ 1420 mM)
solubility ([1]; aqueous urea solution, Ifosfamid-Endkonzentration, Harnstoff-Startkonzentration 12,5 % (G/V), Harnstoff-Endkonzentration 7,0 % (G/G)): 412 mg/mL (≈ 1580 mM)
solubility ([1]; aqueous urea solution, Ifosfamid-Endkonzentration, Harnstoff-Startkonzentration 15 % (G/V), Harnstoff-Endkonzentration 12,2 % (G/G)): 462 mg/mL (≈ 1770 mM)
solubility ([1]; aqueous urea solution, Ifosfamid-Endkonzentration, Harnstoff-Startkonzentration 20 % (G/V), Harnstoff-Endkonzentration 15,8 % (G/G)): 483 mg/mL (≈ 1850 mM)
solubility ([1]; aqueous urea solution, Ifosfamid-Endkonzentration, Harnstoff-Startkonzentration 30 % (G/V), Harnstoff-Endkonzentration 24,2 % (G/G)): 521 mg/mL (≈ 2000 mM)
solubility ([1]; aqueous urea solution, Ifosfamid-Endkonzentration, Harnstoff-Startkonzentration 40 % (G/V), Harnstoff-Endkonzentration 34,3 % (G/G)): 462 mg/mL (≈ 1770 mM)
solubility ([1]; aqueous urea solution, Ifosfamid-Endkonzentration, Harnstoff-Startkonzentration 50 % (G/V), Harnstoff-Endkonzentration 42,1 % (G/G)): 443 mg/mL (≈ 1700 mM)
solubility ([1]; aqueous urea solution, Ifosfamid-Sättigungskonzentration, bei geeigneter Harnstoffkonzentration): ~500 mg/mL (≈ 1920 mM)
pH-Wert ([1]; Harnstoff-Startkonzentration 0 % (G/V)): 5,2
pH-Wert ([1]; Harnstoff-Startkonzentration 1,0 % (G/V)): 5,0
pH-Wert ([1]; Harnstoff-Startkonzentration 2,0 % (G/V)): 5,0
pH-Wert ([1]; Harnstoff-Startkonzentration 3,0 % (G/V)): 5,0
pH-Wert ([1]; Harnstoff-Startkonzentration 4,0 % (G/V)): 5,1
pH-Wert ([1]; Harnstoff-Startkonzentration 5,0 % (G/V)): 5,1
pH-Wert ([1]; Harnstoff-Startkonzentration 6,0 % (G/V)): 5,1
pH-Wert ([1]; Harnstoff-Startkonzentration 7,0 % (G/V)): 5,1
pH-Wert ([1]; Harnstoff-Startkonzentration 8,0 % (G/V)): 5,1
pH-Wert ([1]; Harnstoff-Startkonzentration 9,0 % (G/V)): 5,2
pH-Wert ([1]; Harnstoff-Startkonzentration 10,0 % (G/V)): 5,1
pH-Wert ([1]; Harnstoff-Startkonzentration 12,5 % (G/V)): 5,0
pH-Wert ([1]; Harnstoff-Startkonzentration 15 % (G/V)): 5,0
pH-Wert ([1]; Harnstoff-Startkonzentration 20 % (G/V)): 5,0
pH-Wert ([1]; Harnstoff-Startkonzentration 30 % (G/V)): 5,0
pH-Wert ([1]; Harnstoff-Startkonzentration 40 % (G/V)): 5,0
pH-Wert ([1]; Harnstoff-Startkonzentration 50 % (G/V)): 5,0
solubility ([1]; water, Ifosfamid-Endkonzentration, Harnstoff-Startkonzentration 0 % (G/V), Harnstoff-Endkonzentration 0 % (G/G)): 118 mg/mL (≈ 452 mM)
solubility [1, 3]: ~120 mg/mL (≈ 460 mM)
Wirkstoffverlust ([2]; 5%ige und 10%ige (G/V) wäßrige Ifosfamidlösungen, 2 bis 8°C, nach 17 Wochen, 171360 min): ≤ 10%
Wirkstoffverlust ([2]; 5%ige und 10%ige (G/V) wäßrige Ifosfamidlösungen, Raumtemperatur, nach 6 Wochen, 60480 min): ≤ 10%
